From patent publication US8354403B2, “Pyrrolidine derived beta 3 adrenergic receptor agonists” (Merck Sharp & Dohme Corp., priority 2009, dated 2013)
pEC50: −log10 of the molar value.

Target: T1, human β3 adrenergic receptor (Homo sapiens, UniProt P13945)
T1 construct: expressed in transfected cells; host or cells: Chinese hamster ovary (CHO) cells, stably transfected
Experiment: Beta-3 agonist in vitro functional assay: cAMP production (LANCE TR-FRET) in CHO cells stably transfected with the cloned β3 receptor
Type: cell-based
Conditions: Table 4; cAMP, CHO cells; read-out: Human β3 agonist functional activity
Procedure: Chinese hamster ovary (CHO) cells, stably transfected with the cloned β-adrenergic receptor (β1, β2 or β3) are harvested after 3 days of subculturing. Harvesting of cells is done with Enzyme-free Dissociation Media (Specialty Media). Cells are then counted and resuspended in assay buffer (Hank's Balanced salt solution supplemented with 5 mM HEPES, […]) containing a phosphodiesterase inhibitor (IBMX, 0.6 mM). The reaction is initiated by mixing 6,000 cells in 6 μL with 6 μL Alexa Fluor labeled cAMP antibody (LANCE™ kit) which is then added to an assay well containing 12 μL of compound (diluted in assay buffer to 2× final concentration). The reaction proceeds for 30 minutes at RT and is terminated by the addition of 24 ul detection buffer (LANCE™ kit). The assay plate is then incubated for 1 h at RT and time-resolved fluorescence measured on a Perkin Elmer Envision reader or equivalent. The unknown cAMP level is determined by comparing fluorescence levels to a cAMP standard curve.
The non-selective, full agonist β-adrenergic ligand isoproterenol is used at all three receptors to determine maximal stimulation. […] Data are analyzed using Microsoft Excel and Graphpad Prism or an internally developed data analysis software package.

T1 sequence (P13945 whole entry): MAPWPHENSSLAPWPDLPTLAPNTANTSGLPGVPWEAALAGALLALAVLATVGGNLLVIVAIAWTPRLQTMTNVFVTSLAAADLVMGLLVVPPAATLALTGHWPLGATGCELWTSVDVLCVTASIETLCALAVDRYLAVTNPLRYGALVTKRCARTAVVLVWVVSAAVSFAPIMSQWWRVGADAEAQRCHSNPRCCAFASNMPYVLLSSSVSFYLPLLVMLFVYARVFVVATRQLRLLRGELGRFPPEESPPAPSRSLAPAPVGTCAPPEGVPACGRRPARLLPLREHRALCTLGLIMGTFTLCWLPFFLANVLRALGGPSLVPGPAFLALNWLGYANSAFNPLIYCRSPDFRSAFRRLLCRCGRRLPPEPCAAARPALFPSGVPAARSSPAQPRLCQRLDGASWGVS

| pEC50 | Structure (SMILES) |
| --- | --- |
| 7.00 to 8.00 | O=C(c1ccc(C[C@@H]2CC[C@H]([C@H](O)c3ccccc3)N2)cc1)N1CC2CC(n3cnnn3)CC2C1 (stereo partly shown) [Example 23] |
| 8.00 to 9.00 | O=C(c1ccc(C[C@@H]2CC[C@H]([C@H](O)c3ccccc3)N2)cc1)N1CC2CCC(C1)C2n1cnnn1 (stereo partly shown) [Example 63] |
| 7.00 to 8.00 | O=C(c1ccc(C[C@@H]2CC[C@H]([C@H](O)c3ccccc3)N2)cc1)N1Cc2c[nH]nc2C1 [Example 27] |
| 6.00 to 7.00 | NC(=O)C1(F)CN(C(=O)c2ccc(C[C@@H]3CC[C@H]([C@H](O)c4ccccc4)N3)cc2)C1 [Example 4] |
| 7.00 to 8.00 | CCOC(=O)C1CCCN(C(=O)c2ccc(C[C@@H]3CC[C@H]([C@H](O)c4ccccc4)N3)cc2)C1 (stereo partly shown) [Example 31] |
| 6.00 to 7.00 | O=C(c1ccc(C[C@@H]2CC[C@H]([C@H](O)c3cccnc3)N2)cc1)N1CCCC1c1ccccc1F (stereo partly shown) [Example 16] |
| 7.00 to 8.00 | O=C(c1ccc(C[C@@H]2CC[C@H]([C@H](O)c3ccccc3)N2)cc1)N1CCCC2(CCOC2=O)C1 (stereo partly shown) [Example 40] |

Same assay, conditions: Table 5; cAMP, CHO cells; read-out: Human β3 agonist functional activity

| pEC50 | Structure (SMILES) |
| --- | --- |
| 6.00 to 7.00 | CN(C)C(=O)c1cc(OC2CCN(C(=O)c3ccc(C[C@@H]4CC[C@H]([C@H](O)c5ccccc5)N4)cc3)CC2)no1 [Example 158] |
| 7.00 to 8.00 | O=C(OCc1ccccc1)C1CCN(C(=O)c2ccc(C[C@@H]3CC[C@H]([C@H](O)c4ccccc4)N3)cc2)CC1 [Example 119] |
| 7.00 to 8.00 | CS(=O)(=O)c1ccccc1OC1CCN(C(=O)c2ccc(C[C@@H]3CC[C@H]([C@H](O)c4ccccc4)N3)cc2)CC1 [Example 156] |
| 8.00 to 9.00 | CC(C)n1nnnc1C1CCN(C(=O)c2ccc(C[C@@H]3CC[C@H]([C@H](O)c4ccccc4)N3)cc2)CC1 [Example 109] |
| 8.00 to 9.00 | O=C(c1ncc(-c2cccc(F)n2)o1)C1CCN(C(=O)c2ccc(C[C@@H]3CC[C@H]([C@H](O)c4ccccc4)N3)cc2)CC1 [Example 121] |
| 7.00 to 8.00 | O=C(c1ccc(C[C@@H]2CC[C@H]([C@H](O)c3ccccc3)N2)cc1)N1CCC(S(=O)(=O)c2ccc(Cl)cc2)CC1 [Example 136] |

Same assay, conditions: Table 7; cAMP, CHO cells; ranges as given for Tables 6 and 7; read-out: Human β3 agonist functional activity

| pEC50 | Structure (SMILES) |
| --- | --- |
| 7.00 to 8.00 | N#CC1(c2cnccn2)C2CN(C(=O)c3ccc(C[C@@H]4CC[C@H]([C@H](O)c5ccccc5)N4)cc3)CC21 (stereo partly shown) [Example 235] |

Same assay, conditions: Table 8; Beta-3 agonist in vitro functional assay; read-out: Human β3 agonist functional activity

| pEC50 | Structure (SMILES) |
| --- | --- |
| 6.00 to 7.00 | O=C(c1ccc(C[C@@H]2CC[C@H]([C@H](O)c3ccccc3)N2)cc1)N1CCC2(CCCNC2=O)CC1 [Example 256] |
| 8.00 to 9.00 | O=C(c1ccc(C[C@@H]2CC[C@H]([C@H](O)c3ccccc3)N2)cc1)N1CCC2(C=Cc3ccccc3S2(=O)=O)CC1 [Example 337] |
| 7.00 to 8.00 | COc1ccc2c(c1)C(=O)CC1(CCN(C(=O)c3ccc(C[C@@H]4CC[C@H]([C@H](O)c5cccnc5)N4)cc3)CC1)S2 [Example 329] |
| 7.00 to 8.00 | O=C(c1ccc(C[C@@H]2CC[C@H]([C@H](O)c3ccccc3)N2)cc1)N1CCC2(CC1)OC(C1CC1)c1ccccc12 (stereo partly shown) [Example 308] |
| 7.00 to 8.00 | COC(=O)C1CC2(CCN(C(=O)c3ccc(C[C@@H]4CC[C@H]([C@H](O)c5ccccc5)N4)cc3)CC2)c2ccccc21 (stereo partly shown) [Example 320] |
| 6.00 to 7.00 | NC1CCCC12CCN(C(=O)c1ccc(C[C@@H]3CC[C@H]([C@H](O)c4ccccc4)N3)cc1)CC2 (stereo partly shown) [Example 315] |
| 6.00 to 7.00 | O=C(c1ccc(C[C@@H]2CC[C@H]([C@H](O)c3ccccc3)N2)cc1)N1CCC2(CC1)CCN(c1ccccc1)C2=O [Example 254] |
| 8.00 to 9.00 | O=C(c1ccc(C[C@@H]2CC[C@H]([C@H](O)c3ccccc3)N2)cc1)N1CCC2(CC1)C(=O)NCC2c1ccccc1C(F)(F)F (stereo partly shown) [Example 265] |

Same assay, conditions: Table 9; Beta-3 agonist in vitro functional assay; read-out: Human β3 agonist functional activity

| pEC50 | Structure (SMILES) |
| --- | --- |
| 6.00 to 7.00 | CN(C)C(=O)CN1CCN(C(=O)c2ccc(C[C@@H]3CC[C@H]([C@H](O)c4ccccc4)N3)cc2)CC1 [Example 389] |
| 6.00 to 7.00 | O=C(c1ccc(C[C@@H]2CC[C@H]([C@H](O)c3ccccc3)N2)cc1)N1CCN(c2ccccn2)CC1 [Example 355] |
| 7.00 to 8.00 | O=C(c1ccc(C[C@@H]2CC[C@H]([C@H](O)c3ccccc3)N2)cc1)N1CCN(Cc2n[nH]c3ncccc23)CC1 [Example 406] |
| 7.00 to 8.00 | COc1cccnc1N1CCN(C(=O)c2ccc(C[C@@H]3CC[C@H]([C@H](O)c4ccccc4)N3)cc2)CC1 [Example 361] |
| 7.00 to 8.00 | O=C(c1ccc(C[C@@H]2CC[C@H]([C@H](O)c3ccccc3)N2)cc1)N1CCN(Cc2ncccc2Br)CC1 [Example 416] |
| 6.00 to 7.00 | Cc1cc(C)nc(N2CCN(C(=O)c3ccc(C[C@@H]4CC[C@H]([C@H](O)c5ccccc5)N4)cc3)CC2)n1 [Example 372] |
| 6.00 to 7.00 | O=C(O)COc1cccnc1N1CCN(C(=O)c2ccc(C[C@@H]3CC[C@H]([C@H](O)c4ccccc4)N3)cc2)CC1 [Example 367] |
| 7.00 to 8.00 | O=C(c1ccc(C[C@@H]2CC[C@H]([C@H](O)c3ccccc3)N2)cc1)N1CCN(Cc2ccncn2)CC1 [Example 427] |

Same assay, conditions: Table 10; Beta-3 agonist in vitro functional assay; read-out: Human β3 agonist functional activity

| pEC50 | Structure (SMILES) |
| --- | --- |
| 8.00 to 9.00 | CC(C(=O)N1CC[C@H](F)C1)N1CCN(C(=O)c2ccc(C[C@@H]3CC[C@H]([C@H](O)c4ccccc4)N3)cc2)CC1 (stereo partly shown) [Example 475] |
| 6.00 to 7.00 | CC(C(=O)NC(C)(C)CO)N1CCN(C(=O)c2ccc(C[C@@H]3CC[C@H]([C@H](O)c4ccccc4)N3)cc2)CC1 (stereo partly shown) [Example 444] |
| 6.00 to 7.00 | CC(C(=O)N1CCC[C@H]1C(N)=O)N1CCN(C(=O)c2ccc(C[C@@H]3CC[C@H]([C@H](O)c4ccccc4)N3)cc2)CC1 (stereo partly shown) [Example 478] |
| 8.00 to 9.00 | CCC(C)(C)NC(=O)C(C)N1CCN(C(=O)c2ccc(C[C@@H]3CC[C@H]([C@H](O)c4ccccc4)N3)cc2)CC1 (stereo partly shown) [Example 439] |
| 6.00 to 7.00 | CC(C(=O)NCC(N)=O)N1CCN(C(=O)c2ccc(C[C@@H]3CC[C@H]([C@H](O)c4ccccc4)N3)cc2)CC1 (stereo partly shown) [Example 445] |
| 8.00 to 9.00 | CC(C(=O)NCC1CCC1)N1CCN(C(=O)c2ccc(C[C@@H]3CC[C@H]([C@H](O)c4ccccc4)N3)cc2)CC1 (stereo partly shown) [Example 452] |
| 7.00 to 8.00 | CC(C(=O)NCC1CCCO1)N1CCN(C(=O)c2ccc(C[C@@H]3CC[C@H]([C@H](O)c4ccccc4)N3)cc2)CC1 (stereo partly shown) [Example 455] |
| 7.00 to 8.00 | CC(C(=O)NCc1ncco1)N1CCN(C(=O)c2ccc(C[C@@H]3CC[C@H]([C@H](O)c4ccccc4)N3)cc2)CC1 (stereo partly shown) [Example 462] |
| 7.00 to 8.00 | CC(C(=O)NCCC1CC1)N1CCN(C(=O)c2ccc(C[C@@H]3CC[C@H]([C@H](O)c4ccccc4)N3)cc2)CC1 (stereo partly shown) [Example 448] |
| 7.00 to 8.00 | CC(C(=O)NC1CCCC1)N1CCN(C(=O)c2ccc(C[C@@H]3CC[C@H]([C@H](O)c4ccccc4)N3)cc2)CC1 (stereo partly shown) [Example 456] |

Same assay, conditions: Table 11; cAMP, CHO cells; read-out: Human β3 agonist functional activity

| pEC50 | Structure (SMILES) |
| --- | --- |
| 7.00 to 8.00 | C[C@H]1CN(C(=O)c2ccc(C[C@@H]3CC[C@H]([C@H](O)c4ccccc4)N3)cc2)CCN1Cc1nc2ccccc2o1 [Example 531] |

Same assay, conditions: Table 12; human β3 functional activity given as ranges; read-out: Human β3 agonist functional activity

| pEC50 | Structure (SMILES) |
| --- | --- |
| 8.00 to 9.00 | O=C(c1ccc(CC2CCC(C(O)c3ccccc3)N2)cc1)N1CCN(C2CCc3cccnc32)CC1 (single isomer, unassigned) [Example 598] |
| 8.00 to 9.00 | O=C1CC(c2ccccc2)C2(CCN(C(=O)c3ccc(CC4CCC(C(O)c5cccnc5)N4)cc3)CC2)O1 (single isomer, unassigned) [Example 560] |
| 7.00 to 8.00 | CC(c1ncccn1)N1CCN(C(=O)c2ccc(CC3CCC(C(O)c4ccccc4)N3)cc2)CC1 (single isomer, unassigned) [Example 595] |
| 7.00 to 8.00 | CC(c1cocn1)N1CCN(C(=O)c2ccc(CC3CCC(C(O)c4ccccc4)N3)cc2)CC1 (single isomer, unassigned) [Example 585] |

Same assay, conditions: Table 13; human Beta-3 agonist functional activity given as range; read-out: Human β3 agonist functional activities

| pEC50 | Structure (SMILES) |
| --- | --- |
| 8.00 to 9.00 | O=C(c1ccc(C[C@@H]2CC[C@H]([C@H](O)c3ccccc3)N2)c(Br)c1)N1CC2C(C1)C2n1cnnn1 (stereo partly shown) [Example 609] |
